From ChEMBL document CHEMBL1687828, “Extremely drug-resistant Citrobacter freundii isolate producing NDM-1 and other carbapenemases identified in a patient returning from India” (2011)

Assays:
Citrobacter freundii [1] = test: Antibacterial activity against drug-resistant Citrobacter freundii isolate producing metallo-beta-lactamase NDM-1 with carbapenemase activity isolated from urine culture of cerebral vascular malformation patient; type: functional
Citrobacter freundii [2] = test: Antibacterial activity against drug-resistant Citrobacter freundii isolate producing metallo-beta-lactamase NDM-1 with carbapenemase activity isolated from urine culture of cerebral vascular malformation patient by Etest; type: functional, organism-based

Molecule | MIC (Citrobacter freundii [1]) [µg/mL] | MIC (Citrobacter freundii [2]) [µg/mL]
C[C@@H](O)[C@H]1C(=O)N2C(C(=O)O)=C(S[C@@H]3CN[C@H](C(=O)Nc4cccc(C(=O)O)c4)C3)[C@H](C)[C@H]12 [ERTAPENEM] | > 32 | –
C[C@@H](O)[C@H]1C(=O)N2C(C(=O)O)=C(SCCNC=N)C[C@H]12 [IMIPENEM ANHYDROUS] | > 32 | –
C[C@@H](O)[C@H]1C(=O)N2C(C(=O)O)=C(S[C@@H]3CN[C@H](C(=O)N(C)C)C3)[C@H](C)[C@H]12 [MEROPENEM] | > 32 | –
COLISTIN | – | 0.5
